Results from US10251394B2, “Molecules having pesticidal utility, and intermediates, compositions, and processes, related thereto” (Dow AgroSciences LLC, priority 2016, dated 2019).

What was measured:
[1] = tested on: Beet Armyworm (Spodoptera exigua); experiment: Bioassay on Beet Armyworm (BAW), 128-well diet tray assay; format: in vivo; conditions: Beet Armyworm, Table ABC, read-out: BAW rating
Procedure, shortened: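 Second-instar larvae (one to five per well) placed on artificial diet surface-treated with 50 μg/cm^2 test molecule in 90:10 acetone-water, dried, eight wells per molecule. Held at 25° C, 14:10 light-dark, five to seven days; percent mortality recorded per well and averaged across the eight wells.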

[2] = tested on: Cabbage Looper (Trichoplusia ni); experiment: Bioassay on Cabbage Looper (CL), 128-well diet tray assay; format: in vivo; conditions: Cabbage Looper, Table ABC, read-out: CL rating
Procedure, shortened: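 Second-instar larvae, one to five per well, placed on artificial diet surface-treated with 50 μg/cm^2 compound in acetone-water, eight wells per compound. Held 5-7 days at 25° C, 14:10 light-dark; percent mortality per well averaged across wells.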

Structure (SMILES) | pest or weed control at 50 µg/cm2 [1] | pest or weed control at 50 µg/cm2 [2]
C=Cc1cc(C(/C=C(\F)c2ccc(C(=O)N[C@H](C)C(=O)NCC(F)(F)F)c(C(F)(F)F)c2)C(F)(F)F)cc(Cl)c1Cl (stereo partly drawn) [F186, 4-((Z)-3-(3,4-dichloro-5-vinylphenyl)-1,4,4,4-tetrafluorobut-1-en-1-yl)-N—((R)-1-oxo-1-((2,2,2-trifluoroethyl)amino)propan-2-yl)-2-(trifluoromethyl)benzamide] | 50 to 100% | 50 to 100%
C=C(C)c1cc(C(/C=C(\F)c2ccc(C(=O)N[C@H](C)C(=O)NCC(F)(F)F)c(C(F)(F)F)c2)C(F)(F)F)cc(Cl)c1Cl (stereo partly drawn) [F187, 4-((Z)-3-(3,4-Dichloro-5-(prop-1-en-2-yl)phenyl)-1,4,4,4-tetrafluoro-but-1-en-1-yl)-N—((R)-1-oxo-1-((2,2,2-trifluoroethyl)amino)propan-2-yl)-2-(trifluoromethyl)benzamide] | 50 to 100% | 50 to 100%
C/C=C/c1cc(C(/C=C(\F)c2ccc(C(=O)N[C@H](C)C(=O)NCC(F)(F)F)c(C(F)(F)F)c2)C(F)(F)F)cc(Cl)c1Cl (stereo partly drawn) [F188, 4-((Z)-3-(3,4-Dichloro-5-((E)-prop-1-en-1-yl)phenyl)-1,4,4,4-tetrafluorobut-1-en-1-yl)-N—((R)-1-oxo-1-((2,2,2-trifluoroethyl)amino)propan-2-yl)-2-(trifluoromethyl)benzamide] | 50 to 100% | 50 to 100%
C#Cc1cc(C(/C=C(\F)c2ccc(C(=O)N[C@H](C)C(=O)NCC(F)(F)F)c(C(F)(F)F)c2)C(F)(F)F)cc(Cl)c1Cl (stereo partly drawn) [F189, 4-((Z)-3-(3,4-Dichloro-5-ethynylphenyl)-1,4,4,4-tetrafluorobut-1-en-1-yl)-N—((R)-1-oxo-1-((2,2,2-trifluoroethyl)amino)propan-2-yl)-2-(trifluoromethyl)benzamide] | 50 to 100% | 50 to 100%
CC#Cc1cc(C(/C=C(\F)c2ccc(C(=O)N[C@H](C)C(=O)NCC(F)(F)F)c(C(F)(F)F)c2)C(F)(F)F)cc(Cl)c1Cl (stereo partly drawn) [F190, 4-((Z)-3-(3,4-Dichloro-5-(prop-1-yn-1-yl)phenyl)-1,4,4,4-tetrafluorobut-1-en-1-yl)-N—((R)-1-oxo-1-((2,2,2-trifluoroethyl)amino)propan-2-yl)-2-(trifluoromethyl)benzamide] | 50 to 100% | 50 to 100%
C[C@@H](NC(=O)c1ccc(/C(F)=C/C(c2cc(Cl)c(Cl)c(C#CC(C)(C)C)c2)C(F)(F)F)cc1C(F)(F)F)C(=O)NCC(F)(F)F (stereo partly drawn) [F191, 4-((Z)-3-(3,4-Dichloro-5-(3,3-dimethylbut-1-yn-1-yl)phenyl)-1,4,4,4-tetrafluorobut-1-en-1-yl)-N—((R)-1-oxo-1-((2,2,2-trifluoroethyl)amino)propan-2-yl)-2-(trifluoromethyl)benzamide] | 50 to 100% | 50 to 100%
C[C@@H](NC(=O)c1ccc(/C(F)=C/C(c2cc(Cl)c(Cl)c(C#N)c2)C(F)(F)F)cc1C(F)(F)F)C(=O)NCC(F)(F)F (stereo partly drawn) [F192, 4-((Z)-3-(3,4-Dichloro-5-cyanophenyl)-1,4,4,4-tetrafluorobut-1-en-1-yl)-N—((R)-1-oxo-1-((2,2,2-trifluoroethyl)amino)propan-2-yl)-2-(trifluoromethyl)benzamide] | 50 to 100% | 50 to 100%
C[C@@H](NC(=O)c1ccc(/C(F)=C/C(c2cc(Cl)c(Cl)c(C(C)(F)F)c2)C(F)(F)F)cc1C(F)(F)F)C(=O)NCC(F)(F)F (stereo partly drawn) [F193, 4-((Z)-3-(3,4-Dichloro-5-(1,1-difluoroethyl)phenyl)-1,4,4,4-tetrafluorobut-1-en-1-yl)-N—((R)-1-oxo-1-((2,2,2-trifluoroethyl)amino)propan-2-yl)-2-(trifluoromethyl)benzamide] | 50 to 100% | 50 to 100%
C[C@@H](NC(=O)c1ccc(/C(F)=C/C(c2cc(Cl)c(Cl)c(CF)c2)C(F)(F)F)cc1C(F)(F)F)C(=O)NCC(F)(F)F (some centres unmarked) [F194] | 50 to 100% | 50 to 100%
C[C@@H](NC(=O)c1ccc(/C(F)=C/C(c2cc(Cl)c(Cl)c(C(F)F)c2)C(F)(F)F)cc1C(F)(F)F)C(=O)NCC(F)(F)F (stereo partly drawn) [F195, 4-((Z)-3-(3,4-dichloro-5-(difluoromethyl)phenyl)-1,4,4,4-tetrafluorobut-1-en-1-yl)-N—((R)-1-oxo-1-((2,2,2-trifluoroethyl)amino)propan-2-yl)-2-(trifluoromethyl)benzamide] | 50 to 100% | 50 to 100%
C=Cc1cc(C(/C=C(\F)c2ccc(C(=O)N[C@@H]3CON(CC(F)(F)F)C3=O)c(C(F)(F)F)c2)C(F)(F)F)cc(Cl)c1Cl (stereo partly drawn) [F196, 4-((Z)-3-(3,4-Dichloro-5-vinylphenyl)-1,4,4,4-tetrafluorobut-1-en-1-yl)-N—((R)-3-oxo-2-(2,2,2-trifluoroethyl)isoxazolidin-4-yl)-2-(trifluoromethyl)benzamide] | 50 to 100% | 50 to 100%
O=C(N[C@@H]1CON(CC(F)(F)F)C1=O)c1ccc(/C(F)=C/C(c2cc(Cl)c(Cl)c(Br)c2)C(F)(F)F)cc1C(F)(F)F (stereo partly drawn) [F197, 4-((Z)-3-(3-Bromo-4,5-dichlorophenyl)-1,4,4,4-tetrafluorobut-1-en-1-yl)-N—((R)-3-oxo-2-(2,2,2-trifluoroethyl)isoxazolidin-4-yl)-2-(trifluoromethyl)benzamide] | 50 to 100% | 50 to 100%
O=C(N[C@@H]1CON(CC(F)(F)F)C1=O)c1ccc(/C(F)=C/C(c2cc(Cl)c(Cl)c(Cl)c2)C(F)(F)F)cc1Br (stereo partly drawn) [F198, 2-Bromo-N—((R)-3-oxo-2-(2,2,2-trifluoroethyl)isoxazolidin-4-yl)-4-((Z)-1,4,4,4-tetrafluoro-3-(3,4,5-trichlorophenyl)but-1-en-1-yl)benzamide] | 50 to 100% | 50 to 100%
O=C(N[C@@H]1CON(CC(F)(F)F)C1=O)c1ccc(/C(F)=C/C(c2cc(Cl)c(Cl)c(C(F)F)c2)C(F)(F)F)cc1C(F)(F)F (stereo partly drawn) [F199, 4-((Z)-3-(3,4-Dichloro-5-(difluoromethyl)phenyl)-1,4,4,4-tetrafluoro-but-1-enyl)-N—((R)-3-oxo-2-(2,2,2-trifluoroethyl)isoxazolidin-4-yl)-2-(trifluoromethyl)benzamide] | 50 to 100% | 50 to 100%
C=Cc1cc(/C(F)=C/C(c2cc(Cl)c(Cl)c(Cl)c2)C(F)(F)F)ccc1C(=O)NCC(=O)NCC(F)(F)F (centres unmarked) [F200, (Z)—N-(2-Oxo-2-((2,2,2-trifluoroethyl)amino)ethyl)-4-(1,4,4,4-tetrafluoro-3-(3,4,5-trichlorophenyl)but-1-en-1-yl)-2-vinylbenzamide] | 50 to 100% | 50 to 100%
C=Cc1cc(/C(F)=C/C(c2cc(Cl)c(Cl)c(Cl)c2)C(F)(F)F)ccc1C(=O)N[C@H](C)C(=O)NCC(F)(F)F (stereo partly drawn) [F201, N—((R)-1-Oxo-1-((2,2,2-trifluoroethyl)amino)propan-2-yl)-4-((Z)-1,4,4,4-tetrafluoro-3-(3,4,5-trichlorophenyl)but-1-en-1-yl]-2-vinylbenzamide] | 50 to 100% | 50 to 100%
C[C@@H](NC(=O)c1ccc(/C(F)=C/C(c2cc(F)c(Cl)c(C(F)(F)F)c2)C(F)(F)F)cc1C(F)(F)F)C(=O)NCC(F)(F)F (stereo partly drawn) [F202, 4-((Z)-3-(4-Chloro-3-fluoro-5-(trifluoromethyl)phenyl)-1,4,4,4-tetrafluorobut-1-en-1-yl)-N—((R)-1-oxo-1-((2,2,2-trifluoroethyl)amino)propan-2-yl)-2-(trifluoromethyl)benzamide] | 50 to 100% | 50 to 100%
O=C(CNC(=O)c1ccc(/C(F)=C/C(c2cc(F)c(Cl)c(C(F)(F)F)c2)C(F)(F)F)cc1C(F)(F)F)NCC(F)(F)F (centres unmarked) [F203, (Z)-4-(3-(4-Chloro-3-fluoro-5-(trifluoromethyl)phenyl)-1,4,4,4-tetrafluoro-but-1-en-1-yl)-N-(2-oxo-2-((2,2,2-trifluoroethyl)amino)ethyl)-2-(trifluoromethyl)benzamide] | 50 to 100% | 50 to 100%
C=Cc1cc(/C(F)=C/C(c2cc(Cl)c(Cl)c(Cl)c2)C(F)(F)F)ccc1C(=O)N[C@@H]1CON(CC(F)(F)F)C1=O (stereo partly drawn) [F204, N—((R)-3-Oxo-2-(2,2,2-trifluoroethyl)isoxazolidin-4-yl)-4-((Z)-1,4,4,4-tetrafluoro-3-(3,4,5-trichlorophenyl)but-1-en-1-yl)-2-vinylbenzamide] | 50 to 100% | 50 to 100%
O=C(CNC(=O)c1ccc(/C(F)=C/C(c2ccc(C(F)(F)F)c(Cl)c2)C(F)(F)F)cc1C(F)(F)F)NCC(F)(F)F (centres unmarked) [F206, (Z)-4-(3-(3-Chloro-4-(trifluoromethyl)phenyl)-1,4,4,4-tetrafluorobut-1-en-1-yl)-N-(2-oxo-2-((2,2,2-trifluoroethyl)amino)ethyl)-2-(trifluoromethyl)benzamide] | 50 to 100% | 50 to 100%
C[C@@H](NC(=O)c1ccc(/C(F)=C/C(c2cc(Cl)cc(OCC(F)(F)F)c2)C(F)(F)F)cc1C(F)(F)F)C(=O)NCC(F)(F)F (stereo partly drawn) [F207, 4-((Z)-3-(3-chloro-5-(2,2,2-trifluoroethoxy)phenyl)-1,4,4,4-tetrafluorobut-1-en-1-yl)-N—((R)-1-oxo-1-((2,2,2-trifluoroethyl)amino)propan-2-yl)-2-(trifluoromethyl)benzamide] | 50 to 100% | 50 to 100%
O=C(CNC(=O)c1ccc(/C(F)=C/C(c2ccc(C(F)(F)F)c(F)c2)C(F)(F)F)cc1C(F)(F)F)NCC(F)(F)F (centres unmarked) [F211] | 50 to 100% | 50 to 100%
